# Test results published in US4556560A, “Methods for the treatment and prophylaxis of diaper rash and diaper dermatitis” (The Procter & Gamble Company, priority 1983, dated 1985).
# What was measured:
# lipase [1] = test: Lipase activity of stool-free, urine-free pure lipase composition with lipase-inhibiting agent (Examples VI, VII); type: biochemical; design: LIPASE ACTIVITY: unit not given here; conditions: for % REDUCTION LIPASE ACTIVITY / LIPASE ACTIVITY: pure lipase composition; for inhibition of lipase: inability to provide the critical level of free metal ion Zn++
# Experimental: (§1) For example, the method of commerce available from Harleco® diagnostics utilizes the activity of lipase, i.e., the digestion of triglycerides to diglycerides and monoglycerides, glycerol and free fatty acids. After this digestion is allowed to proceed at the optimal buffered pH, the turbidity is measured spectrophotometrically at 400 nanometers.
# (§2) In Examples VI and VII, a stool-free and urine-free pure lipase composition of the expressed activity is patched in the Hairless Mouse model as described above. This is the Control. This lipase composition is patched in combination with 0.1 ml of the lipase-inhibiting agent solution at the concentration expressed.
# In this Example, a non-stool, no-urine pure lipase composition is patched in the hairless mouse model, and then in combination with a lipase-inhibiting agent at the indicated concentrations.
# lipase [2] = test: Relative lipase activity of the feces/urea patch with lipase-inhibiting agent (Examples I, II, IV); type: biochemical
# Experimental: as §1
# (§3) In Examples I-V, fecal material is mixed with a 2% urea solution at a weight:weight ratio of 1:4 feces:urea, and this homogenate is patched as described above in the Hairless Mouse model with 0.375 ml of this homogenate. The pure homogenate is patched as the control. Where a specific concentration of lipase-inhibiting agent is expressed, the feces/urea homogenate is patched in combination with 0.1 ml of a solution of the described lipase-inhibiting agent solution.
# [3] = footnote to Example VII
# [4] = background statement; cited from earlier work
# [5] = system: lipase-related skin irritation; test: Hairless mouse patch test with pure lipase composition (Example VII); type: in vivo, hairless mice; conditions: 100 mM (ZnO, ZnCO3, Zn undecylenate patched as suspensions)
# Source text: (§4) This method may be used to determine the utility and effect of lipase-inhibiting agents, or compositions containing these agents, on primary skin irritation caused by prolonged contact of a urine/feces mixture under occluded conditions.
# (§5) Male, hairless mice at 8-12 weeks of age are used for the study. The animals are housed individually in plastic shoe box cages for the experiments, and fed Purina® Rodent Laboratory Chow and tap water ad libitum. Mice are assigned numbers during each study which are posted on each cage.
# (§6) The mice are cared for, and the room conditions maintained following acceptable animal study conditions.
# (§7) Patch treatment compositions are prepared by taking the fecal material to be tested and mixing it with a 2% urea solution at a weight:weight ratio of 1:4 feces:urea. 0.1 ml of the lipase-inhibiting agent solution or composition of the desired concentration is patched along with 0.375 ml of the urine/feces mixture. Patches for the mice are prepared by saturating an absorbent material (such as cotton) with the feces/urine suspension, placing it on the skin and covering it with an impermeable material. For example, this may be done by cutting away the adhesive border from a 37×20 mm Webril pad. The Webril pad will then be cut into quarters to obtain 1 cm^2 patches. Each patch will be saturated with 0.1 ml of the lipase-inhibiting agent solution and 0.375 ml of the urine/feces mixture. The control patch is simply 0.375 ml of the urine/feces mixture. Prior to application of test or control patches, each mouse is anesthetized by placement into a chamber containing ether. The test patch is then placed midline on the mouse back, towards the shoulder, and covered with Blenderm® (3M) tape in order to occlude the patch site. The mouse is next wrapped with Scanpor® tape (Norgeplaster A/S) to secure the patch. After 24 hrs., the initial patch is removed and a fresh patch of test substance or a fresh control is applied, as described above. After 24 hrs., the second patch is removed, thus giving a total occluded patch time of 48 hrs.
# (§8) Approximately 1 hr. after removal of the second patch, the test site skin condition is evaluated using the grading scales outlined in the following tables:
# (§9) Each animal is examined by two graders, at least one of whom is blind as to the treatments applied. Both graders' scores should be calculated for each of the above categories, as well as a primary Irritation Index equalling the sum of scores for each category.
# as §2, with “expressed. […]” for “expressed.”
# [6] = system: primary skin irritation caused by prolonged contact of a urine/feces mixture under occluded conditions; test: Hairless mouse patch test: feces/urea homogenate patched with lipase-inhibiting agent solution (Examples I-V); type: in vivo, hairless mice
# Source text: as §4, §5, §6, §7, §8, §9, §3
# [7] = Example VI, 50 mM, lipase control 40,320
# [8] = Example VI, 100 mM, lipase control 40,320
# [9] = Example IV, 10 mM, control 127,500
# [10] = Example IV, 25 mM, control 127,500
# [11] = Example IV, 50 mM, control 127,500
# [12] = Example IV, 100 mM, control 127,500
# [13] = Example VII, 100 mM (ZnO, ZnCO3, Zn undecylenate patched as suspensions), control 36,750
# [14] = Example I, 10 mM agent solution, control 6250
# [15] = Example I, 25 mM agent solution, control 6250
# [16] = Example I, 50 mM agent solution, control 6250
# [17] = Example I, 100 mM agent solution, control 6250
# [18] = Example I, 10 mM, 0.1 ml with 0.375 ml feces/urea homogenate, 48 hrs occluded, control 7.20 ± 0.75
# [19] = Example I, 25 mM, 0.1 ml with 0.375 ml feces/urea homogenate, 48 hrs occluded, control 7.20 ± 0.75
# [20] = Example I, 50 mM, 0.1 ml with 0.375 ml feces/urea homogenate, 48 hrs occluded, control 7.20 ± 0.75
# [21] = Example I, 100 mM, 0.1 ml with 0.375 ml feces/urea homogenate, 48 hrs occluded, control 7.20 ± 0.75
# [22] = Example III, 100 mM, control 4.95 ± 0.45 (control lipase activity 100,000)
# [23] = Example V, 100 mM, control 4.45 ± 0.17
molecule,measurement,setting,value
"O=S(=O)([O-])[O-].[Cu+2] [CuSO4, copper sulfate]",% REDUCTION LIPASE ACTIVITY,"lipase [1]; Example VI, 50 mM",54%
same,LIPASE ACTIVITY,lipase [1]; [7],"18,500"
same,% REDUCTION LIPASE ACTIVITY,"lipase [1]; Example VI, 100 mM",59%
same,LIPASE ACTIVITY,lipase [1]; [8],"16,500"
"O.O.O.O.O.O.[Cl-].[Cl-].[Cl-].[Fe+3] [FeCl3.6H2 O, iron(III)chloride hexahydrate]",RELATIVE LIPASE ACTIVITY,lipase [2]; [9],"177,500"
same,RELATIVE LIPASE ACTIVITY,lipase [2]; [10],"128,750"
same,RELATIVE LIPASE ACTIVITY,lipase [2]; [11],"111,350"
same,RELATIVE LIPASE ACTIVITY,lipase [2]; [12],6250
same,% REDUCTION LIPASE ACTIVITY,"lipase [1]; Example VI, 50 mM",99%
same,LIPASE ACTIVITY,lipase [1]; [7],500
same,% REDUCTION LIPASE ACTIVITY,"lipase [1]; Example VI, 100 mM",100%
same,LIPASE ACTIVITY,lipase [1]; [8],0
"[Cl][Co][Cl] [CoCl2, cobalt chloride]",% REDUCTION LIPASE ACTIVITY,"lipase [1]; Example VI, 50 mM",41%
same,LIPASE ACTIVITY,lipase [1]; [7],"23,750"
same,% REDUCTION LIPASE ACTIVITY,"lipase [1]; Example VI, 100 mM",81%
same,LIPASE ACTIVITY,lipase [1]; [8],"7,750"
"[O]=[Zn] [ZnO, zinc oxide, reference compound]",concentration of solution the salt is capable of forming,[3],20 µM
same,solubility in water,[4],almost totally insoluble
same,LIPASE ACTIVITY,lipase [1]; [13],"33,000"
same,inhibition of lipase,lipase [1],ineffective
same,% REDUCTION IN […],[5],10%
"[Cl-].[Cl-].[Zn+2] [ZnCl2, zinc chloride]",RELATIVE LIPASE ACTIVITY,lipase [2]; [14],5000
same,RELATIVE LIPASE ACTIVITY,lipase [2]; [15],0
same,RELATIVE LIPASE ACTIVITY,lipase [2]; [16],0
same,RELATIVE LIPASE ACTIVITY,lipase [2]; [17],0
same,RELATIVE LIPASE ACTIVITY,"lipase [2]; Example II, 20 mM, control 6000",500
same,RELATIVE LIPASE ACTIVITY,"lipase [2]; Example II, 30 mM, control 6000",1250
same,RELATIVE LIPASE ACTIVITY,"lipase [2]; Example II, 40 mM, control 6000",0
same,RELATIVE LIPASE ACTIVITY,"lipase [2]; Example II, 50 mM, control 6000",0
same,RELATIVE LIPASE ACTIVITY,"lipase [2]; Example II, 60 mM, control 6000",0
same,RELATIVE LIPASE ACTIVITY,"lipase [2]; Example II, 70 mM, control 6000",0
same,RELATIVE LIPASE ACTIVITY,lipase [2]; [9],"72,500"
same,RELATIVE LIPASE ACTIVITY,lipase [2]; [10],0
same,RELATIVE LIPASE ACTIVITY,lipase [2]; [11],0
same,RELATIVE LIPASE ACTIVITY,lipase [2]; [12],0
same,% REDUCTION LIPASE ACTIVITY,"lipase [1]; Example VI, 50 mM",96%
same,LIPASE ACTIVITY,lipase [1]; [7],"1,500"
same,% REDUCTION LIPASE ACTIVITY,"lipase [1]; Example VI, 100 mM",98%
same,LIPASE ACTIVITY,lipase [1]; [8],750
same,LIPASE ACTIVITY,lipase [1]; [13],"1,250"
same,% REDUCTION IN IRRITATION INDEX,[5],97%
same,IRRITATION INDEX,[6]; [18],6.05 ± 1.23
same,IRRITATION INDEX,[6]; [19],4.95 ± 1.36
same,IRRITATION INDEX,[6]; [20],0.80 ± 1.01
same,IRRITATION INDEX,[6]; [21],1.15 ± 0.97
same,IRRITATION INDEX,"[6]; Example II, 20 mM, control 6.67 ± 0.94",3.50 ± 2.44
same,IRRITATION INDEX,"[6]; Example II, 30 mM, control 6.67 ± 0.94",4.87 ± 1.37
same,IRRITATION INDEX,"[6]; Example II, 40 mM, control 6.67 ± 0.94",2.62 ± 1.86
same,IRRITATION INDEX,"[6]; Example II, 50 mM, control 6.67 ± 0.94",2.54 ± 1.78
same,IRRITATION INDEX,"[6]; Example II, 60 mM, control 6.67 ± 0.94",1.42 ± 1.62
same,IRRITATION INDEX,"[6]; Example II, 70 mM, control 6.67 ± 0.94",1.17 ± 1.01
same,IRRITATION INDEX,[6]; [22],0.55 ± 1.23
same,IRRITATION INDEX,"[6]; Example IV, 10 mM, control 6.15 ± 1.08",5.55 ± 0.95
same,IRRITATION INDEX,"[6]; Example IV, 25 mM, control 6.15 ± 1.08",0.50 ± 0.82
same,IRRITATION INDEX,"[6]; Example IV, 50 mM, control 6.15 ± 1.08",0.45 ± 0.64
same,IRRITATION INDEX,"[6]; Example IV, 100 mM, control 6.15 ± 1.08",1.75 ± 1.65
same,IRRITATION INDEX,[6]; [23],1.85 ± 0.61
"O=C([O-])[O-].[Zn+2] [ZnCO3, zinc carbonate, reference compound]",LIPASE ACTIVITY,lipase [1]; [13],"35,000"
same,inhibition of lipase,lipase [1],ineffective
same,% REDUCTION IN […],[5],5%
"[Ca+2].[Cl-].[Cl-] [CaCl2, reference compound]",IRRITATION INDEX,[6]; [22],3.55 ± 1.10
Zinc glycerolate,solubility in water,[4],insoluble
"[Cl][Sn][Cl] [SnCl2, tin(II)chloride]",% REDUCTION LIPASE ACTIVITY,"lipase [1]; Example VI, 50 mM",93%
same,LIPASE ACTIVITY,lipase [1]; [7],"3,000"
same,% REDUCTION LIPASE ACTIVITY,"lipase [1]; Example VI, 100 mM",97%
same,LIPASE ACTIVITY,lipase [1]; [8],"1,250"
same,IRRITATION INDEX,[6]; [23],0.50 ± 0.16
"O.O.O.O.O.O=S(=O)([O-])[O-].[Cu+2] [CuSO4.5H2 O, copper sulfate pentahydrate]",RELATIVE LIPASE ACTIVITY,lipase [2]; [14],4750
same,RELATIVE LIPASE ACTIVITY,lipase [2]; [15],2250
same,RELATIVE LIPASE ACTIVITY,lipase [2]; [16],750
same,RELATIVE LIPASE ACTIVITY,lipase [2]; [17],0
same,IRRITATION INDEX,[6]; [18],6.75 ± 1.42
same,IRRITATION INDEX,[6]; [19],5.35 ± 2.93
same,IRRITATION INDEX,[6]; [20],3.50 ± 3.08
same,IRRITATION INDEX,[6]; [21],5.50 ± 1.05
C=CCCCCCCCCC(=O)[O-].C=CCCCCCCCCC(=O)[O-].[Zn+2] [Zn undecylenate],LIPASE ACTIVITY,lipase [1]; [13],"10,080"
same,% REDUCTION IN IRRITATION INDEX,[5],73%
"[Cl][La]([Cl])[Cl] [LaCl3, lanthanum chloride]",IRRITATION INDEX,[6]; [22],0 ± 0
